Tests used:
Details in all cases: Compound concentration 10 µM
[1] = target: Beta-2 adrenergic receptor (Homo sapiens) (UniProt P07550)
Description: PDSP Primary Binding target: ADRB2 - Compounds are tested at 10 uM concentration, plate are incubated at room temperature in the dark for 90 minutes. Reaction are stopped by vacuum filtration onto 0.3% polyethyleneimine soaked filter mats using Filtermate harvester. Scintilation cocktail is then melted onto microwave-dried filters on a hot plate and the radio activity is counted in Microbia counter.

[2] = target: T1, Muscarinic acetylcholine receptor M1 (Homo sapiens) (UniProt P11229)
T1 sequence (whole entry): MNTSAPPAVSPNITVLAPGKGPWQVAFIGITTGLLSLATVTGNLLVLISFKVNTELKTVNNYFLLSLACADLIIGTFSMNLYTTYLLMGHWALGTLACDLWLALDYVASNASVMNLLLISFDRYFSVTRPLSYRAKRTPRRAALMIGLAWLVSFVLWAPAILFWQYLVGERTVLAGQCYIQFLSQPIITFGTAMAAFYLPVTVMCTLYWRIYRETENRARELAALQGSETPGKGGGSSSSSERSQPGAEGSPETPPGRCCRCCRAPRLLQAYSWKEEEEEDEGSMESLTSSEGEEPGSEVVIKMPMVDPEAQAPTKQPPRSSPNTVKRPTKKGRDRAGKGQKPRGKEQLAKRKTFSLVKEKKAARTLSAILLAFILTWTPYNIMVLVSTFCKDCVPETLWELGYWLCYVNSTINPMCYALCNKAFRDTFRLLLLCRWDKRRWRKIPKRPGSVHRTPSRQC
Description: PDSP Primary Binding target: CHRM1 - Compounds are tested at 10 uM concentration, plate are incubated at room temperature in the dark for 90 minutes. Reaction are stopped by vacuum filtration onto 0.3% polyethyleneimine soaked filter mats using Filtermate harvester. Scintilation cocktail is then melted onto microwave-dried filters on a hot plate and the radio activity is counted in Microbia counter.

[3] = target: T2, Muscarinic acetylcholine receptor M5 (Homo sapiens) (UniProt P08912)
T2 sequence (whole entry): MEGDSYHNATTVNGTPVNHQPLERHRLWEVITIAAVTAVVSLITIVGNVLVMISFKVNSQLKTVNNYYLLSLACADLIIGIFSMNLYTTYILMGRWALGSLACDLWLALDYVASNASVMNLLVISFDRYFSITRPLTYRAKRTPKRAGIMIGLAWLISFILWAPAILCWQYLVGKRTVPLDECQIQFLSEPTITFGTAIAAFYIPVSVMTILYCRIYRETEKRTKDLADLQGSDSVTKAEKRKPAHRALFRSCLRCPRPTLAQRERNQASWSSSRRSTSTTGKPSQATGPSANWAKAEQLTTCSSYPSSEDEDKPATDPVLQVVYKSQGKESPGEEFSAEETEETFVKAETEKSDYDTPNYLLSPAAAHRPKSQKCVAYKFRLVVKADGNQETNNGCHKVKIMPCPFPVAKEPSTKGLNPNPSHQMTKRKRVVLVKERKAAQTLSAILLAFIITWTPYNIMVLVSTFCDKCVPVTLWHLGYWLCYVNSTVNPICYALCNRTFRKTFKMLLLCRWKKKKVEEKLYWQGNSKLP
Description: PDSP Primary Binding target: CHRM5 - Compounds are tested at 10 uM concentration, plate are incubated at room temperature in the dark for 90 minutes. Reaction are stopped by vacuum filtration onto 0.3% polyethyleneimine soaked filter mats using Filtermate harvester. Scintilation cocktail is then melted onto microwave-dried filters on a hot plate and the radio activity is counted in Microbia counter.

[4] = target: D(1A) dopamine receptor (Homo sapiens) (UniProt P21728)
Description: PDSP Primary Binding target: DRD1 - Compounds are tested at 10 uM concentration, plate are incubated at room temperature in the dark for 90 minutes. Reaction are stopped by vacuum filtration onto 0.3% polyethyleneimine soaked filter mats using Filtermate harvester. Scintilation cocktail is then melted onto microwave-dried filters on a hot plate and the radio activity is counted in Microbia counter.

[5] = target: D(3) dopamine receptor (Homo sapiens) (UniProt P35462)
Description: PDSP Primary Binding target: DRD3 - Compounds are tested at 10 uM concentration, plate are incubated at room temperature in the dark for 90 minutes. Reaction are stopped by vacuum filtration onto 0.3% polyethyleneimine soaked filter mats using Filtermate harvester. Scintilation cocktail is then melted onto microwave-dried filters on a hot plate and the radio activity is counted in Microbia counter.

[6] = target: 5-hydroxytryptamine receptor 1D (Homo sapiens) (UniProt P28221)
Description: PDSP Primary Binding target: HTR1D - Compounds are tested at 10 uM concentration, plate are incubated at room temperature in the dark for 90 minutes. Reaction are stopped by vacuum filtration onto 0.3% polyethyleneimine soaked filter mats using Filtermate harvester. Scintilation cocktail is then melted onto microwave-dried filters on a hot plate and the radio activity is counted in Microbia counter.

[7] = target: 5-hydroxytryptamine receptor 1E (Homo sapiens) (UniProt P28566)
Description: PDSP Primary Binding target: HTR1E - Compounds are tested at 10 uM concentration, plate are incubated at room temperature in the dark for 90 minutes. Reaction are stopped by vacuum filtration onto 0.3% polyethyleneimine soaked filter mats using Filtermate harvester. Scintilation cocktail is then melted onto microwave-dried filters on a hot plate and the radio activity is counted in Microbia counter.

[8] = target: 5-hydroxytryptamine receptor 2A (Homo sapiens) (UniProt P28223)
Description: PDSP Primary Binding target: HTR2A - Compounds are tested at 10 uM concentration, plate are incubated at room temperature in the dark for 90 minutes. Reaction are stopped by vacuum filtration onto 0.3% polyethyleneimine soaked filter mats using Filtermate harvester. Scintilation cocktail is then melted onto microwave-dried filters on a hot plate and the radio activity is counted in Microbia counter.

[9] = target: 5-hydroxytryptamine receptor 2B (Homo sapiens) (UniProt P41595)
Description: PDSP Primary Binding target: HTR2B - Compounds are tested at 10 uM concentration, plate are incubated at room temperature in the dark for 90 minutes. Reaction are stopped by vacuum filtration onto 0.3% polyethyleneimine soaked filter mats using Filtermate harvester. Scintilation cocktail is then melted onto microwave-dried filters on a hot plate and the radio activity is counted in Microbia counter.

[10] = target: T3, 5-hydroxytryptamine receptor 3A (Homo sapiens) (UniProt P46098)
T3 sequence (whole entry): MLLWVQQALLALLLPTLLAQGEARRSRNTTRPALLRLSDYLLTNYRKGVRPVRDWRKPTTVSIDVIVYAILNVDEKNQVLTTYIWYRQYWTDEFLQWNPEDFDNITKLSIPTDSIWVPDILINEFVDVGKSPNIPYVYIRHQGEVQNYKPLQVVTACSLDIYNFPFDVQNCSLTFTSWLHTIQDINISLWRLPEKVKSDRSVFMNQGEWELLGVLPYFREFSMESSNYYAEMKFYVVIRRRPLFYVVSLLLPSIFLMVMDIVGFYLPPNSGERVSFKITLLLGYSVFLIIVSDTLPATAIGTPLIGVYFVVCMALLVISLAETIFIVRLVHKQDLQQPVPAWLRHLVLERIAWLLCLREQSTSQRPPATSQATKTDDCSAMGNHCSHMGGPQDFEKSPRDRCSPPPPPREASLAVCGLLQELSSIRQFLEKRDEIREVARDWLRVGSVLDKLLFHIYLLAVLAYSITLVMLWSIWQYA
Description: PDSP Primary Binding target: HTR3A - Compounds are tested at 10 uM concentration, plate are incubated at room temperature in the dark for 90 minutes. Reaction are stopped by vacuum filtration onto 0.3% polyethyleneimine soaked filter mats using Filtermate harvester. Scintilation cocktail is then melted onto microwave-dried filters on a hot plate and the radio activity is counted in Microbia counter.

[11] = target: Mu-type opioid receptor (Homo sapiens) (UniProt P35372)
Description: PDSP Primary Binding target: OPRM1 - Compounds are tested at 10 uM concentration, plate are incubated at room temperature in the dark for 90 minutes. Reaction are stopped by vacuum filtration onto 0.3% polyethyleneimine soaked filter mats using Filtermate harvester. Scintilation cocktail is then melted onto microwave-dried filters on a hot plate and the radio activity is counted in Microbia counter.

[12] = target: Sigma intracellular receptor 2 (Homo sapiens) (UniProt Q5BJF2)
Description: PDSP Primary Binding target: TMEM97 - Compounds are tested at 10 uM concentration, plate are incubated at room temperature in the dark for 90 minutes. Reaction are stopped by vacuum filtration onto 0.3% polyethyleneimine soaked filter mats using Filtermate harvester. Scintilation cocktail is then melted onto microwave-dried filters on a hot plate and the radio activity is counted in Microbia counter.

[13] = target: Beta-3 adrenergic receptor (Homo sapiens) (UniProt P13945)
Description: PDSP Primary Binding target: ADRB3 - Compounds are tested at 10 uM concentration, plate are incubated at room temperature in the dark for 90 minutes. Reaction are stopped by vacuum filtration onto 0.3% polyethyleneimine soaked filter mats using Filtermate harvester. Scintilation cocktail is then melted onto microwave-dried filters on a hot plate and the radio activity is counted in Microbia counter.

[14] = target: T4, Alpha-2A adrenergic receptor (Homo sapiens) (UniProt P08913)
T4 sequence (whole entry): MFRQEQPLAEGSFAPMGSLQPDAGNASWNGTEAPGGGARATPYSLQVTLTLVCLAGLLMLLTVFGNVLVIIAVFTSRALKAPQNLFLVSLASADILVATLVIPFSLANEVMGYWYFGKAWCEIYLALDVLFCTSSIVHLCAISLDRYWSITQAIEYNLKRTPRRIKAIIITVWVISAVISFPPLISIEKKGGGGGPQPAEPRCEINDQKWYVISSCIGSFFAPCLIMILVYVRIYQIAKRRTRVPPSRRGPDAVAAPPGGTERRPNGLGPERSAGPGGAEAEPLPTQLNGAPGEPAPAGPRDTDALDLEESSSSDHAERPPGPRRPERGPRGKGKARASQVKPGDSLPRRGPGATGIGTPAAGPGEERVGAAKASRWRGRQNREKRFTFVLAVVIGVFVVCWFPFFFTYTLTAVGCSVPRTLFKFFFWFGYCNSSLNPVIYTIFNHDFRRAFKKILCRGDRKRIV
Description: PDSP Primary Binding target: ADRA2A - Compounds are tested at 10 uM concentration, plate are incubated at room temperature in the dark for 90 minutes. Reaction are stopped by vacuum filtration onto 0.3% polyethyleneimine soaked filter mats using Filtermate harvester. Scintilation cocktail is then melted onto microwave-dried filters on a hot plate and the radio activity is counted in Microbia counter.

[15] = target: 5-hydroxytryptamine receptor 6 (Homo sapiens) (UniProt P50406)
Description: PDSP Primary Binding target: HTR6 - Compounds are tested at 10 uM concentration, plate are incubated at room temperature in the dark for 90 minutes. Reaction are stopped by vacuum filtration onto 0.3% polyethyleneimine soaked filter mats using Filtermate harvester. Scintilation cocktail is then melted onto microwave-dried filters on a hot plate and the radio activity is counted in Microbia counter.

[16] = target: Beta-1 adrenergic receptor (Homo sapiens) (UniProt P08588)
Beta-1 adrenergic receptor (Homo sapiens), sequence (P08588 whole entry, looked up): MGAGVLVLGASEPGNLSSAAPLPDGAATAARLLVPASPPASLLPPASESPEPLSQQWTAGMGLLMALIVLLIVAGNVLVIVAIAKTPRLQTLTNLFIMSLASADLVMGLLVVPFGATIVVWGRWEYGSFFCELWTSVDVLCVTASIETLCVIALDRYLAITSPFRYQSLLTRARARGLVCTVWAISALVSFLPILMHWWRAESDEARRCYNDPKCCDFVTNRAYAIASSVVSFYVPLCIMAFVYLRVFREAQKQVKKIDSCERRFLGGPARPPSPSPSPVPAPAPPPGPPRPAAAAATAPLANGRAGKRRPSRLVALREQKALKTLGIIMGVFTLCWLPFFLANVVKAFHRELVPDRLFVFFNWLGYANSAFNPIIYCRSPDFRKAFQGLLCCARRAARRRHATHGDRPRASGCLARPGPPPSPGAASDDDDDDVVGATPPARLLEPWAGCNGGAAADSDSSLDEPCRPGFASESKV
Description: PDSP Primary Binding target: ADRB1 - Compounds are tested at 10 uM concentration, plate are incubated at room temperature in the dark for 90 minutes. Reaction are stopped by vacuum filtration onto 0.3% polyethyleneimine soaked filter mats using Filtermate harvester. Scintilation cocktail is then melted onto microwave-dried filters on a hot plate and the radio activity is counted in Microbia counter.

5-hydroxytryptamine receptor 1D (Homo sapiens), sequence (P28221 whole entry): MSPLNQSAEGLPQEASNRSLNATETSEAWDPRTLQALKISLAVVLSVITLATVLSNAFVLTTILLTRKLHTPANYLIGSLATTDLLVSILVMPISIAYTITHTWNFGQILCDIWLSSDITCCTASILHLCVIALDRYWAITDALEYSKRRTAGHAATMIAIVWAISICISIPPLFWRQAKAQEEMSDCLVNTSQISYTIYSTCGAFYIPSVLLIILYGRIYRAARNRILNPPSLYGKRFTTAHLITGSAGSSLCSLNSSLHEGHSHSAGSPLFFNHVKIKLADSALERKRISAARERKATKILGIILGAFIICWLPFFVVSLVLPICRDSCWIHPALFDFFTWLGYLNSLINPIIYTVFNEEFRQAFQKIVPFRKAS
Sigma intracellular receptor 2 (Homo sapiens), sequence (Q5BJF2 whole entry): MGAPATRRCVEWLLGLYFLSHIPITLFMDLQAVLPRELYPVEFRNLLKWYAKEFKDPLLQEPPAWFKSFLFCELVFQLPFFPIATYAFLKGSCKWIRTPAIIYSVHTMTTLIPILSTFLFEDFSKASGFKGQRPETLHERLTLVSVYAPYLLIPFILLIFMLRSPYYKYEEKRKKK
Mu-type opioid receptor (Homo sapiens), sequence (P35372 whole entry): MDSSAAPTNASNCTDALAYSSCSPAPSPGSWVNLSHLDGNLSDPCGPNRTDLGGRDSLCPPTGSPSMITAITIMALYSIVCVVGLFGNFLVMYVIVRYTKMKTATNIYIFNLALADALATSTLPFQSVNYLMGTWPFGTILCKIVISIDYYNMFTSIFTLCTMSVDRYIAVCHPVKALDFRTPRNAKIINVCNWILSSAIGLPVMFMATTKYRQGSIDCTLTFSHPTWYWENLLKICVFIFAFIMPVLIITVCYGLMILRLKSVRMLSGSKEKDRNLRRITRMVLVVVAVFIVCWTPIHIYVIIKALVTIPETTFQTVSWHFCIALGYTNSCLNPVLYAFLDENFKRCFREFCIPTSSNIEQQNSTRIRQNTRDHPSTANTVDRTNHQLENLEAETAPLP
5-hydroxytryptamine receptor 1E (Homo sapiens), sequence (P28566 whole entry): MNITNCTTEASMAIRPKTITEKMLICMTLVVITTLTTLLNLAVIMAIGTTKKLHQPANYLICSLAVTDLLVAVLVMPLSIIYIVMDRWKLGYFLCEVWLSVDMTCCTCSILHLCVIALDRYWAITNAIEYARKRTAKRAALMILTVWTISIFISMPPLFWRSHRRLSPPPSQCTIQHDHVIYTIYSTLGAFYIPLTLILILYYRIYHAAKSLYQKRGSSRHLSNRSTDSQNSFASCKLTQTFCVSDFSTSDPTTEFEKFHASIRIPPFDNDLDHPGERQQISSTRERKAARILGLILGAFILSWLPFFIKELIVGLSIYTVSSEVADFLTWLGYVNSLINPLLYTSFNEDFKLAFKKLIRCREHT
D(3) dopamine receptor (Homo sapiens), sequence (P35462 whole entry): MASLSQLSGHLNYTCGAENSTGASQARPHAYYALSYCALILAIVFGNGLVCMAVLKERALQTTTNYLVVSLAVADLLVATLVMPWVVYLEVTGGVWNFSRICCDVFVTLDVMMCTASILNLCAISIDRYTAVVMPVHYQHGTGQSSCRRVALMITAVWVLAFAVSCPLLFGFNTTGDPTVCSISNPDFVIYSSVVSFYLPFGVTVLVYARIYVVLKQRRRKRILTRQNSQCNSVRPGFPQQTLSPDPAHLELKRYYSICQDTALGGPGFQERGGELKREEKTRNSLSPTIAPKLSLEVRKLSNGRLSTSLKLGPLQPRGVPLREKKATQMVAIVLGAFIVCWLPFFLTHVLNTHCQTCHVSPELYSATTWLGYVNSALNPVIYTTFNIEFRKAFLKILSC
5-hydroxytryptamine receptor 2A (Homo sapiens), sequence (P28223 whole entry): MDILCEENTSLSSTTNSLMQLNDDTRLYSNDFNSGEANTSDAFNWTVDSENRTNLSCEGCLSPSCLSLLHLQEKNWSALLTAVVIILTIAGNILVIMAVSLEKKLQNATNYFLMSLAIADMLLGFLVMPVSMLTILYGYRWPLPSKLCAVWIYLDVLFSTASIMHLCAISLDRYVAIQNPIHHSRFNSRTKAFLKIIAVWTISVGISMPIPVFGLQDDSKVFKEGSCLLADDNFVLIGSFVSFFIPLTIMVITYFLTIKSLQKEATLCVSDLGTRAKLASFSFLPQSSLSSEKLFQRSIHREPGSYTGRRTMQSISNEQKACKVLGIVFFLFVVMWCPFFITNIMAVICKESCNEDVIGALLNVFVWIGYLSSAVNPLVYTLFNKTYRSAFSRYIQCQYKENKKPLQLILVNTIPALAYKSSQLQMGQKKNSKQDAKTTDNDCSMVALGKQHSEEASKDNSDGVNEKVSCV
5-hydroxytryptamine receptor 2B (Homo sapiens), sequence (P41595 whole entry): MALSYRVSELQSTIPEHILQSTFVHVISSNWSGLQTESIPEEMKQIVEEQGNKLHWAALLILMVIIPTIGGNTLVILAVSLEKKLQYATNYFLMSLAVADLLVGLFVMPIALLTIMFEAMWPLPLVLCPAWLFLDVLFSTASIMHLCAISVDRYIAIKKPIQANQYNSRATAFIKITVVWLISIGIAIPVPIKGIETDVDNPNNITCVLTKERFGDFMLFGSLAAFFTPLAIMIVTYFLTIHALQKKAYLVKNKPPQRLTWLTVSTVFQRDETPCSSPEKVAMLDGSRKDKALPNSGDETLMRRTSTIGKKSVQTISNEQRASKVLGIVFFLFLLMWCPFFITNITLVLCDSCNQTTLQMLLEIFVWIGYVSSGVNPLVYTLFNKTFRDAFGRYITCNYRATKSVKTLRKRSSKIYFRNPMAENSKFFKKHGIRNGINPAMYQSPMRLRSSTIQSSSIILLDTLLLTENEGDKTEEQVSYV
D(1A) dopamine receptor (Homo sapiens), sequence (P21728 whole entry): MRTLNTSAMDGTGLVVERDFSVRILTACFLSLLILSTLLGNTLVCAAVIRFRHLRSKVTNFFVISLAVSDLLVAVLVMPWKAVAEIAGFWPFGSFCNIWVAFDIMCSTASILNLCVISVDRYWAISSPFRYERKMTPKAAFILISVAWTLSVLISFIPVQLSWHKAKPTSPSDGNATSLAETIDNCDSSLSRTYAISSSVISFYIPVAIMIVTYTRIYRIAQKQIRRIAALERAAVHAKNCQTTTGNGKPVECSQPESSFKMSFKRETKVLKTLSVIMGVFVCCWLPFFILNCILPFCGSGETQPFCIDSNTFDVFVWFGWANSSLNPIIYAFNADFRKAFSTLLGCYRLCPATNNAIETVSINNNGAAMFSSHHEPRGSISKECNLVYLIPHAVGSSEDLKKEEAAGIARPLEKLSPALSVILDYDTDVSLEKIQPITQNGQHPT
Beta-2 adrenergic receptor (Homo sapiens), sequence (P07550 whole entry, looked up): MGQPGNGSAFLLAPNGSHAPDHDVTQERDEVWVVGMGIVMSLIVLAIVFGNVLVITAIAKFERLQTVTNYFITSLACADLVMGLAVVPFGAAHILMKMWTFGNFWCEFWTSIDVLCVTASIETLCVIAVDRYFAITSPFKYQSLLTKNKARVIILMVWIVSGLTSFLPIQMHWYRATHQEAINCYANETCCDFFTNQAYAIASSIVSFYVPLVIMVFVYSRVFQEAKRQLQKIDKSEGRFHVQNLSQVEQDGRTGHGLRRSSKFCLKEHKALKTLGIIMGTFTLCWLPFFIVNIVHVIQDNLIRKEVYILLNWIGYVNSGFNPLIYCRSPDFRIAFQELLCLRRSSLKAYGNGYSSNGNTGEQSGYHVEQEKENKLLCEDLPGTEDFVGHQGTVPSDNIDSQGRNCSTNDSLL
Beta-3 adrenergic receptor (Homo sapiens), sequence (P13945 whole entry, looked up): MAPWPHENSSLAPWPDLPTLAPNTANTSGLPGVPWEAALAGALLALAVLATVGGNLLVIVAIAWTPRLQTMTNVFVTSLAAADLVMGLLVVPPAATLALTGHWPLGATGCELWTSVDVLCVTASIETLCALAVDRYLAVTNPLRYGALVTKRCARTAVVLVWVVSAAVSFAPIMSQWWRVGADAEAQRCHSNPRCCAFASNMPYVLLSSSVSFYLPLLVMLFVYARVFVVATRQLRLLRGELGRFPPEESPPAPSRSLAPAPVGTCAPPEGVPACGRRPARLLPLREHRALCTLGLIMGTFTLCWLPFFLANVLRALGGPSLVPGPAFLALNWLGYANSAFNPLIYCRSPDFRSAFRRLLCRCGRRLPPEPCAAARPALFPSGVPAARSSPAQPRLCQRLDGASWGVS
5-hydroxytryptamine receptor 6 (Homo sapiens), sequence (P50406 whole entry): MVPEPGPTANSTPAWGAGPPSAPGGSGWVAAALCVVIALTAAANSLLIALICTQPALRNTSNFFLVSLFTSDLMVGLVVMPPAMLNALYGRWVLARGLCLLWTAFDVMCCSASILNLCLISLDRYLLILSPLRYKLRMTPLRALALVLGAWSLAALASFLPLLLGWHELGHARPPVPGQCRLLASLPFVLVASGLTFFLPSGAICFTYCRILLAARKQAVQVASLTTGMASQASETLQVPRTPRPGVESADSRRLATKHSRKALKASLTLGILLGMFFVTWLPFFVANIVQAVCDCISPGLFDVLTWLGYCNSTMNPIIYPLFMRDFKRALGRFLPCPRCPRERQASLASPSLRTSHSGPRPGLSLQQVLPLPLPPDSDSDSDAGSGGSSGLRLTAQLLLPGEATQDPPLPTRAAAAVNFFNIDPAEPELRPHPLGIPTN

Compound: Cc1cc(NC(=O)Nc2ccc(N(C)C)cc2)c2cc(F)cc(F)c2n1
- inhibition [1]: 16.5%
- inhibition [2]: -7.92%
- inhibition [3]: 39.2%
- inhibition [4]: 29.1%
- inhibition [5]: 34.5%
- inhibition [6]: -2.42%
- inhibition [7]: -4.12%
- inhibition [8]: 13%
- inhibition [9]: 73.3%
- inhibition [10]: 7.73%
- inhibition [11]: 1.4%
- inhibition [12]: 1.52%
- inhibition [13]: 18.1%

Compound: COc1cc(-n2cnc3cc(-c4ccc(Cl)cc4)sc3c2=O)ccc1OCCN1CCCC1
- inhibition [14]: 70.6%
- inhibition [1]: 17.8%
- inhibition [2]: 84.1%
- inhibition [3]: 64.9%
- inhibition [4]: 11.7%
- inhibition [5]: 68.5%
- inhibition [6]: 56.6%
- inhibition [8]: 32.9%
- inhibition [9]: 82.7%
- inhibition [10]: 22.5%
- inhibition [15]: -7.71%
- inhibition [11]: 37.9%
- inhibition [12]: 94.7%
- inhibition [13]: 43.7%

Compound: CCOC(=O)c1c(C)[nH]c2ccc3c(c12)CN1CCc2cc(OC)ccc2C1O3 (configuration not stated)
- inhibition [14]: 86.7%
- inhibition [1]: 23.2%
- inhibition [2]: 11.9%
- inhibition [3]: 2.39%
- inhibition [4]: 1.81%
- inhibition [5]: 44.2%
- inhibition [6]: 14.9%
- inhibition [7]: -6.16%
- inhibition [8]: 28.7%
- inhibition [9]: 67.6%
- inhibition [10]: 75.4%
- inhibition [15]: 10.8%
- inhibition [11]: 56.5%
- inhibition [12]: 36.3%
- inhibition [13]: 6.3%

Compound: C[C@@H](NCCCc1cccc(C(F)(F)F)c1)c1cccc2ccccc12
- inhibition [14]: 27.9%
- inhibition [1]: 9.84%
- inhibition [2]: 17.6%
- inhibition [3]: 7.94%
- inhibition [4]: 8.33%
- inhibition [5]: 94.4%
- inhibition [6]: 61.5%
- inhibition [7]: 18%
- inhibition [8]: 80.6%
- inhibition [9]: 96.3%
- inhibition [10]: 15.4%
- inhibition [15]: 69.1%
- inhibition [11]: 78.3%
- inhibition [12]: 95.5%
- inhibition [13]: 48%

Compound: CN(C(=O)Cc1ccc(Cl)c(Cl)c1)C(CN1CCCC1)c1cccc(OCC(=O)O)c1 (configuration not stated)
- inhibition [14]: 12.2%
- inhibition [16]: 20.5%
- inhibition [1]: -5.04%
- inhibition [3]: 59.6%
- inhibition [5]: 3.88%
- inhibition [7]: -3.71%
- inhibition [8]: 42.8%
- inhibition [9]: 14.7%
- inhibition [10]: 7.24%
- inhibition [15]: 0.97%
- inhibition [11]: 87.5%
- inhibition [12]: 21.9%
- inhibition [13]: -9.83%

Compound: CCc1cc2c(c(CC)n1)CCC(=O)N2Cc1ccc(-c2ccccc2-c2nnn[nH]2)cc1
- inhibition [14]: -6.38%
- inhibition [1]: -4.26%
- inhibition [2]: 1.99%
- inhibition [3]: -1.14%
- inhibition [4]: -4.14%
- inhibition [5]: 87.1%
- inhibition [7]: -6.23%
- inhibition [8]: 29.2%
- inhibition [9]: 10.5%
- inhibition [10]: 8.33%
- inhibition [15]: 10.1%
- inhibition [11]: 51.6%
- inhibition [12]: 8.89%
- inhibition [13]: 9.68%

Compound: Nc1nc2c(c(N3CCNCC3)n1)CCC1=C2[C@@H]2CCCC[C@@H]2O1
- inhibition [14]: 4.22%
- inhibition [2]: 8.9%
- inhibition [3]: -3.04%
- inhibition [4]: -6.45%
- inhibition [6]: 10%
- inhibition [7]: 34.5%
- inhibition [8]: 50.6%
- inhibition [9]: 81.8%
- inhibition [10]: 98.1%
- inhibition [15]: 17.3%
- inhibition [11]: 26.7%
- inhibition [12]: 36.6%
- inhibition [13]: 14.4%

Compound: O=c1ccn([C@@H]2O[C@H](COP(=O)(O)OP(=O)(O)O)[C@@H](O)[C@H]2O)c(=O)[nH]1
- inhibition [1]: -0.48%
- inhibition [3]: -9.39%
- inhibition [5]: 7.98%
- inhibition [6]: -5.04%
- inhibition [7]: 9.09%
- inhibition [8]: 10.7%
- inhibition [9]: 0.47%
- inhibition [15]: 6.18%
- inhibition [11]: 44%
- inhibition [12]: 2.62%
- inhibition [13]: 15.3%

Compound: CCCCCNC(=N)N/N=C/c1c[nH]c2ccc(OC)cc12
- inhibition [14]: 77.7%
- inhibition [1]: 54.7%
- inhibition [2]: 19.6%
- inhibition [3]: 8.93%
- inhibition [4]: 47.1%
- inhibition [5]: 70%
- inhibition [6]: 76.3%
- inhibition [7]: 20.5%
- inhibition [8]: 93.7%
- inhibition [9]: 100%
- inhibition [10]: 70.2%
- inhibition [15]: 89%
- inhibition [11]: 63.9%
- inhibition [12]: 94.2%
- inhibition [13]: 89.7%

Compound: COc1ccc(Br)cc1S(=O)(=O)NC(=O)/C=C/c1ccccc1Cc1ccc2ccccc2c1
- inhibition [1]: -2.54%
- inhibition [2]: 4.85%
- inhibition [3]: 16.9%
- inhibition [4]: -4.59%
- inhibition [5]: 64.7%
- inhibition [6]: 12%
- inhibition [7]: 1.84%
- inhibition [8]: 8.02%
- inhibition [9]: -4.73%
- inhibition [10]: 3.03%
- inhibition [15]: -2.73%
- inhibition [11]: 22.1%
- inhibition [12]: 5.53%
- inhibition [13]: 33.2%

Compound: CCc1cc(C(C)=O)c(O)cc1OCCCCCC(C)(C)c1nn[nH]n1
- inhibition [14]: 14%
- inhibition [16]: 18.3%
- inhibition [3]: 47.9%
- inhibition [4]: 1.9%
- inhibition [5]: 46.8%
- inhibition [8]: 12.7%
- inhibition [9]: 64.2%
- inhibition [10]: -9.38%
- inhibition [15]: 8.17%
- inhibition [11]: 8.2%
- inhibition [13]: 0.68%

Compound: COc1ccccc1CN[C@H]1C2CCN(CC2)[C@H]1C(c1ccccc1)c1ccccc1
- inhibition [14]: 11.1%
- inhibition [16]: 17%
- inhibition [3]: 56.2%
- inhibition [5]: 43%
- inhibition [7]: 5%
- inhibition [8]: 13.4%
- inhibition [9]: 0.68%
- inhibition [10]: 13.6%
- inhibition [15]: 8.17%
- inhibition [11]: 9.53%
- inhibition [12]: 62.5%
- inhibition [13]: -1.7%

Compound: CCCCC#Cc1nc(NC)c2ncn([C@@H]3O[C@H](CO)[C@@H](O)[C@H]3O)c2n1
- inhibition [2]: -6.77%
- inhibition [3]: 20%
- inhibition [4]: 0.72%
- inhibition [5]: 32.7%
- inhibition [6]: 8.46%
- inhibition [7]: 18.8%
- inhibition [8]: 92.5%
- inhibition [9]: -4.41%
- inhibition [10]: 14.1%
- inhibition [15]: 2.49%
- inhibition [11]: 2.4%
- inhibition [12]: 8.59%
- inhibition [13]: -8.99%

Compound: CCCCCCCCCCCCCCCCOC[C@H](COP(=O)([O-])OCC[N+](C)(C)C)OC(C)=O
- inhibition [2]: 49.9%
- inhibition [5]: 72.5%
- inhibition [6]: 68.2%
- inhibition [7]: 11.7%
- inhibition [8]: 2.23%
- inhibition [15]: 4.6%
- inhibition [11]: 35.1%
- inhibition [12]: 57.9%
- inhibition [13]: 28.1%
